Source: ChEMBL document CHEMBL3865798, “Engineering another class of anti-tubercular lead: Hit to lead optimization of an intriguing class of gyrase ATPase inhibitors” (Eur J Med Chem, 2016)
≈ marks a conversion by molar mass, not a printed value.

What was measured:
[1] = biological target: DNA gyrase subunit B (Mycobacterium smegmatis (strain ATCC 700084 / mc(2)155), UniProt A0QNE0)
Description: Inhibition of Mycobacterium smegmatis 155 6His-tagged DNA gyrase B catalytic domain ATPase activity expressed in Escherichia coli BL21 (DE3) pLysS cells assessed as inorganic phosphate release after 120 mins in presence of ATP by malachite green dye based assay

[2] = system: Mycobacterium tuberculosis; experiment: microbe, parasite or virus in culture; conditions: H37Rv, 168 h
Description: Antimycobacterial activity against Mycobacterium tuberculosis H37Rv after 7 days by microplate alamar blue assay

[3] = Growth inhibition of mouse RAW264.7 cells at 100 uM after 48 hrs by MTT assay; format: cell-based; conditions: read-out: GI
[4] = AUC (0 to t) in Wistar rat at 20 mg/kg, po administered as single dose; format: ADME, organism-based; conditions: in vivo
[5] = Cmax in Wistar rat at 20 mg/kg, po administered as single dose; format: ADME, organism-based; parameters: dose 20 mg/kg, route oral; conditions: in vivo
[6] = Protein binding in human plasma at 2500 ng/ml by HPLC analysis; format: ADME, cell-free; conditions: read-out: PPB (converted)
[7] = AUC (0 to t) in Wistar rat at 1 mg/kg, iv administered as single dose; format: ADME, organism-based; conditions: in vivo
[8] = Protein binding in rat plasma at 100 ng/ml by HPLC analysis; format: ADME, cell-free; conditions: read-out: PPB (converted)
[9] = AUC (0 to infinity) in Wistar rat at 1 mg/kg, iv administered as single dose; format: ADME, organism-based; parameters: dose 1 mg/kg, route intravenous, time infinity; conditions: in vivo
[10] = biological target: DNA gyrase subunit B (Mycobacterium smegmatis (strain ATCC 700084 / mc(2)155)) (UniProt A0QNE0); experiment: Binding affinity to Mycobacterium smegmatis 155 6His-tagged DNA gyrase B catalytic domain expressed in Escherichia coli BL21 (DE3) pLysS cells assessed as change in melting temperature by SYPRO orange dye based differential scanning fluorimetric analysis; conditions: Mycolicibacterium smegmatis MC2 155
DNA gyrase subunit B (Mycobacterium smegmatis (strain ATCC 700084 / mc(2)155)), sequence (A0QNE0 2-675 limits assumed): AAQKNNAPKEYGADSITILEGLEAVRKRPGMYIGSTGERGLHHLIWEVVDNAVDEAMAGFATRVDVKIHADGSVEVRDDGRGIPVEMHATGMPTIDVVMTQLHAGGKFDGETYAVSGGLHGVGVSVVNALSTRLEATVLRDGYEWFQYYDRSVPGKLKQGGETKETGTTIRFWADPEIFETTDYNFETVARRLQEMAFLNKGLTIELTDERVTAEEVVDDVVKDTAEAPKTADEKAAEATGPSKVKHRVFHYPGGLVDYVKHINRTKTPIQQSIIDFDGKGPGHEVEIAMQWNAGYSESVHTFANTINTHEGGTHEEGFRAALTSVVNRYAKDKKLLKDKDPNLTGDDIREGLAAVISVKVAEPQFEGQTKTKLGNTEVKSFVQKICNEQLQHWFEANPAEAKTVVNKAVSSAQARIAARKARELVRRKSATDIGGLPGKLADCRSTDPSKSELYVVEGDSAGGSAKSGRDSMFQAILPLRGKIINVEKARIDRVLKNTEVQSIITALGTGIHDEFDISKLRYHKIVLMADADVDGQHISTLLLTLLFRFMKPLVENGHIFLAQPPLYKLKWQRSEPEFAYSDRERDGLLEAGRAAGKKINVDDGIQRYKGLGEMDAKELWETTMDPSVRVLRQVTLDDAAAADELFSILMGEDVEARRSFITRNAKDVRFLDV

[11] = AUC (0 to infinity) in Wistar rat at 20 mg/kg, po administered as single dose; format: ADME, organism-based; parameters: dose 20 mg/kg, time infinity, route oral; conditions: in vivo
[12] = Protein binding in human plasma at 5000 ng/ml by HPLC analysis; format: ADME, cell-free; conditions: read-out: PPB (converted)
[13] = Volume of distribution in Wistar rat at 1 mg/kg, iv administered as single dose; format: ADME, organism-based; conditions: in vivo
[14] = Protein binding in rat plasma at 2500 ng/ml by HPLC analysis; format: ADME, cell-free; conditions: read-out: PPB (converted)
[15] = Total clearance in Wistar rat at 1 mg/kg, iv administered as single dose; format: ADME, organism-based; conditions: in vivo
[16] = Oral bioavailability in Wistar rat at 20 mg/kg administered as single dose; format: ADME, organism-based; conditions: in vivo
[17] = Protein binding in rat plasma by HPLC analysis; format: ADME, cell-free
[18] = Protein binding in human plasma by HPLC analysis; format: ADME, cell-free
[19] = Protein binding in rat plasma at 5000 ng/ml by HPLC analysis; format: ADME, cell-free; conditions: read-out: PPB (converted)
[20] = Time at which plasma concentration stays above in vitro Mycobacterium DNA gyrase IC50 in Wistar rat at 20 mg/kg, po; format: ADME, organism-based; conditions: in vivo
[21] = Tmax in Wistar rat at 20 mg/kg, po administered as single dose; format: ADME, organism-based; conditions: in vivo
[22] = Protein binding in human plasma at 100 ng/ml by HPLC analysis; format: ADME, cell-free; conditions: read-out: PPB (converted)
[23] = Apparent elimination half life in Wistar rat at 1 mg/kg, iv administered as single dose; format: ADME, organism-based; conditions: in vivo, read-out: betat1/2(app) (converted)

DNA gyrase subunit B (Mycobacterium smegmatis (strain ATCC 700084 / mc(2)155), UniProt A0QNE0), sequence (A0QNE0 whole entry): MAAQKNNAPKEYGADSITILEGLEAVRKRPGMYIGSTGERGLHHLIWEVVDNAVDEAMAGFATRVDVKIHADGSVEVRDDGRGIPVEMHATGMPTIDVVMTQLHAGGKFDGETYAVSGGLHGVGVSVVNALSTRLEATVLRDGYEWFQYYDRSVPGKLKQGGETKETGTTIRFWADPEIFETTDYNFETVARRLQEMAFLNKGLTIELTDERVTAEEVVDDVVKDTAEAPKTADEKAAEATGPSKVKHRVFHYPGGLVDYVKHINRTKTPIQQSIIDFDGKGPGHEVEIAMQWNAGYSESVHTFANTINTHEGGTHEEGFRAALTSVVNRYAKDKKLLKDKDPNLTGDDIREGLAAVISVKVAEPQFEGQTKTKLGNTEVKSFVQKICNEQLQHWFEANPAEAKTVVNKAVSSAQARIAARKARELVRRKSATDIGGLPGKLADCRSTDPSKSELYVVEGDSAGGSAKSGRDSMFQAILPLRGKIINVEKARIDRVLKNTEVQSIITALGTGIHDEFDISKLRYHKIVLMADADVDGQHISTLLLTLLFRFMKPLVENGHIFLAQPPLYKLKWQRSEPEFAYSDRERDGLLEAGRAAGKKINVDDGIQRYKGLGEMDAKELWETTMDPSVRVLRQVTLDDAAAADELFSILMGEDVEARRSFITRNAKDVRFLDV

| Compound | IC50 [1] | MIC [2] | inhibition at 48 h, 100 µM [3] | further results |
| --- | --- | --- | --- | --- |
| CC(=O)c1ccc(NC(=O)CN2CCN(c3ccnc4cc(Cl)ccc34)CC2)cc1 | 7.6 µM | 14.5 µM (≈ 6.13 µg/mL) | 29.5% |  |
| O=C(c1cc2cc(Cl)ccc2[nH]1)N1CCN(c2ccnc3cc(Cl)ccc23)CC1 | 10.3 µM | 14.7 µM (≈ 6.25 µg/mL) | 29.8% |  |
| O=C(c1ccccn1)N1CCN(c2ccnc3cc(Cl)ccc23)CC1 | 11 µM | 35.4 µM (≈ 12.5 µg/mL) | 23.6% |  |
| O=C(CN1CCN(c2ccnc3cc(Cl)ccc23)CC1)Nc1cc(C(F)(F)F)ccc1Cl | 31.3 µM | 24.2 µM (≈ 11.7 µg/mL) | 24.7% |  |
| O=C(CN1CCN(c2ccnc3cc(Cl)ccc23)CC1)NCc1ccccn1 | 12.2 µM | 31.6 µM (≈ 12.5 µg/mL) | 36.4% |  |
| O=C(c1cc2cc(F)ccc2[nH]1)N1CCN(c2ccnc3cc(Cl)ccc23)CC1 | 13.6 µM | 15.3 µM (≈ 6.25 µg/mL) | 23.3% |  |
| O=C(CN1CCN(c2ccnc3cc(C(F)(F)F)ccc23)CC1)NCc1ccccn1 | > 75 µM | 116 µM (≈ 50 µg/mL) | 51.2% |  |
| O=[N+]([O-])c1ccc(NC(=S)N2CCN(c3ccnc4cc(Cl)ccc34)CC2)cc1 | 6.8 µM | 14.3 µM (≈ 6.13 µg/mL) | 39.9% |  |
| S=C(NCc1ccccc1)N1CCN(c2ccnc3cc(Cl)ccc23)CC1 | 5.5 µM | 15.8 µM (≈ 6.25 µg/mL) | 19.8% |  |
| COc1ccc2c(N3CCN(CC(=O)NCc4ccccn4)CC3)ccnc2c1 | 51.6 µM | 63.9 µM (≈ 25 µg/mL) | 33.5% |  |
| O=C(NCc1ccccc1)N1CCN(c2ccnc3cc(Cl)ccc23)CC1 | 6.1 µM | 17.7 µM (≈ 6.73 µg/mL) | 25.2% |  |
| COc1ccc(NC(=S)N2CCN(c3ccnc4cc(Cl)ccc34)CC2)cc1 | 11 µM | 30.3 µM (≈ 12.5 µg/mL) | 23.1% |  |
| O=C(CN1CCN(c2ccnc3cc(Cl)ccc23)CC1)NCc1ccccc1 | 23.8 µM | 63.3 µM (≈ 25 µg/mL) | 15.3% |  |
| O=C(Nc1ccccc1)N1CCN(c2ccnc3cc(Cl)ccc23)CC1 | 7.6 µM | 17 µM (≈ 6.25 µg/mL) | 30.9% |  |
| O=C(Nc1ccc([N+](=O)[O-])cc1)N1CCN(c2ccnc3cc(Cl)ccc23)CC1 | 9.2 µM | 30.4 µM (≈ 12.5 µg/mL) | 41.8 to 42% |  |
| CC(C)NC(=S)N1CCN(c2ccnc3cc(Cl)ccc23)CC1 | 40.4 µM | 71.6 µM (≈ 25 µg/mL) | 36.3% |  |
| COc1ccc2[nH]c(C(=O)N3CCN(c4ccnc5cc(Cl)ccc45)CC3)cc2c1 | 24.3 µM | 29.7 µM (≈ 12.5 µg/mL) | 16.4% |  |
| O=C(CN1CCN(c2ccnc3ccccc23)CC1)NCc1ccccn1 | > 75 µM | 138 µM (≈ 50 µg/mL) | 23.5% |  |
| O=C(CN1CCN(c2ccnc3cc(Cl)ccc23)CC1)Nc1ccccn1 | 9.1 µM | 17.7 µM (≈ 6.76 µg/mL) | 25.4% |  |
| Fc1ccc(NC(=S)N2CCN(c3ccnc4cc(Cl)ccc34)CC2)cc1 | 2.5 µM | 7.8 µM (≈ 3.13 µg/mL) | 23.9% | AUC(0-t) [4]: 18800 ng·h/mL; Cmax [5]: 2910 ng/mL; fraction unbound at 2500 ng/ml [6]: 0.064; AUC(0-t) [7]: 1240 ng·h/mL; fraction unbound at 100 ng/ml [8]: 0.065; AUC(0-inf) [9]: 1350 ng·h/mL; ΔTm [10]: 4.1 °C; AUC(0-inf) [11]: 19300 ng·h/mL; fraction unbound at 5000 ng/ml [12]: 0.057; Vd [13]: 0.99 L/kg; fraction unbound at 2500 ng/ml [14]: 0.052; clearance [15]: 13.3 mL/min/kg; bioavailability [16]: 71.2%; PPB [17]: Dose-dependent effect; PPB [18]: Dose-dependent effect; fraction unbound at 5000 ng/ml [19]: 0.046; Time [20]: > 6 h; Tmax [21]: 2.2 h; fraction unbound at 100 ng/ml [22]: 0.078; half-life [23]: 2.04 h |
| CC(C)NC(=O)N1CCN(c2ccnc3cc(Cl)ccc23)CC1 | 43.9 µM | 155 µM (≈ 51.6 µg/mL) | 34.4% |  |
| COc1ccc(NC(=O)N2CCN(c3ccnc4cc(Cl)ccc34)CC2)cc1 | 21.1 µM | 31.5 µM (≈ 12.5 µg/mL) | 25.3% |  |
| O=C(CN1CCN(c2ccnc3cc(Cl)ccc23)CC1)NCc1cccs1 | 14.8 µM | 31.2 µM (≈ 12.5 µg/mL) | 33.4% |  |
| CC1COc2c(N3CCN(C)CC3)c(F)cc3c(=O)c(C(=O)O)cn1c23 (stereo not drawn) [OFLOXACIN] |  | 2.16 µM (≈ 0.781 µg/mL) |  |  |

| Compound | IC50 [1] | MIC [2] | inhibition at 48 h, 100 µM [3] | further results |
| --- | --- | --- | --- | --- |
| O=C(CN1CCN(c2ccnc3cc(Cl)ccc23)CC1)Nc1ncc([N+](=O)[O-])s1 | 14.6 µM | 31.2 µM (≈ 13.5 µg/mL) | 11.3% |  |
| Clc1ccc2c(N3CCN(Cc4nc5ccccc5[nH]4)CC3)ccnc2c1 | 32.6 µM | 27.3 µM (≈ 10.3 µg/mL) | 34.8% |  |
| O=C(c1cc2ccccc2[nH]1)N1CCN(c2ccnc3cc(Cl)ccc23)CC1 | 8.53 µM | 16 µM (≈ 6.25 µg/mL) | 34.6% |  |
| Clc1ccc2c(N3CCN(Cc4ccc[nH]4)CC3)ccnc2c1 | 16.9 µM | 76.5 µM (≈ 25 µg/mL) | 12.6% |  |
| S=C(Nc1ccc(Cl)cc1)N1CCN(c2ccnc3cc(Cl)ccc23)CC1 | 10.7 µM | 30 µM (≈ 12.5 µg/mL) | 34.2% |  |
| O=C(Nc1ccc(F)cc1)N1CCN(c2ccnc3cc(Cl)ccc23)CC1 | 3.1 µM | 15.3 µM (≈ 5.88 µg/mL) | 17.6% |  |
| Clc1ccc2c(N3CCN(Cc4c[nH]c5ccccc45)CC3)ccnc2c1 | 8.3 µM | 16.2 µM (≈ 6.12 µg/mL) | 22.2% |  |
| NNC(=O)c1ccncc1 [ISONIAZID] |  | 0.66 µM (≈ 0.0905 µg/mL) |  |  |
| O=C(CN1CCN(c2ccnc3cc(Cl)ccc23)CC1)NCc1ccco1 | 16.2 µM | 32.5 µM (≈ 12.5 µg/mL) | 21.1% |  |
| O=[N+]([O-])c1ccc(N2CCN(c3ccnc4cc(Cl)ccc34)CC2)c2nonc12 | 10.3 µM | 7.26 µM (≈ 2.98 µg/mL) | 37.2% |  |
| Cc1ccc(NC(=O)N2CCN(c3ccnc4cc(Cl)ccc34)CC2)cc1 | 16 µM | 32.8 µM (≈ 12.5 µg/mL) | 33.9% |  |
| CO[C@H]1/C=C/O[C@@]2(C)Oc3c(C)c(O)c4c(O)c(c(/C=N/N5CCN(C)CC5)c(O)c4c3C2=O)NC(=O)/C(C)=C\C=C\[C@H](C)[C@H](O)[C@@H](C)[C@@H](O)[C@@H](C)[C@H](OC(C)=O)[C@@H]1C [RIFAMPIN] |  | 0.23 µM (≈ 0.189 µg/mL) |  |  |
| CCNC(=O)N1CCN(c2ccnc3cc(Cl)ccc23)CC1 | 45.3 µM | 157 µM (≈ 50 µg/mL) | 27% |  |
| Cc1ccc(NC(=S)N2CCN(c3ccnc4cc(Cl)ccc34)CC2)cc1 | 13.8 µM | 63 µM (≈ 25 µg/mL) | 15.8% |  |
| CC(=O)c1ccc(NC(=O)N2CCN(c3ccnc4cc(Cl)ccc34)CC2)cc1 | 18.8 µM | 30.6 µM (≈ 12.5 µg/mL) | 26.2% |  |
| O=C(CN1CCN(c2ccnc3cc(Cl)ccc23)CC1)Nc1ccccc1 | 33.1 µM | 35.5 µM (≈ 13.5 µg/mL) | 26.2% |  |
| CC(=O)c1ccc(NC(=S)N2CCN(c3ccnc4cc(Cl)ccc34)CC2)cc1 | 27 µM | 58.8 µM (≈ 25 µg/mL) | 27.2% |  |
| O=C(Nc1ccc(Cl)cc1)N1CCN(c2ccnc3cc(Cl)ccc23)CC1 | 9.9 µM | 31.5 µM (≈ 12.6 µg/mL) | 26.2% |  |
| CCNC(=S)N1CCN(c2ccnc3cc(Cl)ccc23)CC1 | 40.6 µM | 74.6 µM (≈ 25 µg/mL) | 21.9% |  |
| O=C(CN1CCN(c2ccnc3cc(Cl)ccc23)CC1)NCCc1ccccn1 | 30.4 µM | 61 µM (≈ 25 µg/mL) | 26.3% |  |
| O=[N+]([O-])c1cnc(N2CCN(c3ccnc4cc(Cl)ccc34)CC2)s1 | 9.6 µM | 33.2 µM (≈ 12.5 µg/mL) | 35.1% |  |
| S=C(Nc1ccccc1)N1CCN(c2ccnc3cc(Cl)ccc23)CC1 | 4.12 µM | 16.3 µM (≈ 6.25 µg/mL) | 16.5% |  |
| O=C(CN1CCN(c2ccnc3cc(Cl)ccc23)CC1)Nc1nc2ccc([N+](=O)[O-])cc2s1 | 16.1 µM | 25.8 µM (≈ 12.5 µg/mL) | 23.6% |  |
| O=C(c1ccc[nH]1)N1CCN(c2ccnc3cc(Cl)ccc23)CC1 | 14.2 µM | 18.3 µM (≈ 6.25 µg/mL) | 34.2% |  |
